From patent publication US20080090805A1, “CB-1 MODULATING COMPOUNDS AND THEIR USE” (ACADIA PHARMACEUTICALS INC., priority 2005, published 2008)
Like-named read-outs stand apart in the source and are kept apart here.

Biological target: CB1 (mutant) (Homo sapiens, UniProt P21554)
Test: R-SAT functional receptor assay, CB1 (mutant, truncated after amino acid 417)
Assay type: cell-based
Conditions: R-SAT CB1; for Emax / % Inhibition: receptor form not stated, relative to SR141716 (100%)
[1] = Appendix A, receptor form (mutant or wild-type) not stated, read-out: pIC50 (converted)
[2] = Appendix A, read-out: % Inhibition
[3] = pIC50, Appendix A, receptor form (mutant or wild-type) not stated
[4] = read-out: % Inhibition, Appendix A

Chain of CB1 (mutant) (P21554 1-417, change not shown): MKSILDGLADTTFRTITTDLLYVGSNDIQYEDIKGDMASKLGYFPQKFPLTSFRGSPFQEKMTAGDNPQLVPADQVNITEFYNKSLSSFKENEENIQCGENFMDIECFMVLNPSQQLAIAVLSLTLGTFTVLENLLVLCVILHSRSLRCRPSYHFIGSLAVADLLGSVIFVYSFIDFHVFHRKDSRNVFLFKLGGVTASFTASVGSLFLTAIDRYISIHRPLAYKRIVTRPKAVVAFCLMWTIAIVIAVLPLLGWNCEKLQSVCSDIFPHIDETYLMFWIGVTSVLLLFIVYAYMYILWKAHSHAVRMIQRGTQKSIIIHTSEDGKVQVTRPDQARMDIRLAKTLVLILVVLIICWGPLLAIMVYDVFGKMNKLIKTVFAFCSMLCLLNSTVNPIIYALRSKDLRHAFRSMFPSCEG

Row | SMILES | IC50 [1] | Emax [2] | other results
1 | O=C(NCc1cccnc1)c1ccc2c(c1)N=C(c1cccc(F)c1)c1ccccc1S2 [drawing 793] | 10 nM | 130% | 
2 | CCCC1=Nc2cc(C(=O)NCc3ccc(OC)cc3)ccc2Sc2ccccc21 |  | 96% | IC50 [3]: 25.1 nM
3 | CCCCNC(=O)c1ccc2c(c1)N=C(c1ccc(Cl)c(Cl)c1)c1ccccc1S2 [drawing 665] |  |  | Emax [4]: 109%
4 | COc1ccc(C2=Nc3cc(C(=O)NCCC(C)C)ccc3Sc3ccccc32)cc1 [drawing 965] | 20 nM | 104% | 
5 | CCOCCNC(=O)c1ccc2c(c1)N=C(c1ccc(Br)cc1)c1ccccc1S2 [drawing 1143] | 39.8 nM | 85% | 
6 | O=C(NN1CCOCC1)c1ccc2c(c1)N=C(c1ccc(F)cc1)c1ccccc1S2 | 631 nM | 77% | 
7 | Cc1cc(NC(=O)c2ccc3c(c2)N=C(c2cccc(F)c2)c2ccccc2S3)no1 | > 1260 nM | 29% | 
8 | O=C(NCCCc1ccccc1)c1ccc2c(c1)N=C(c1ccccc1)c1ccccc1S2 [drawing 617] | 3.98 nM | 111% | 
9 | Cc1ccc(CNC(=O)c2ccc3c(c2)N=C(c2ccsc2)c2ccccc2S3)o1 [drawing 803] | 10 nM | 94% | 
10 | CC(NC(=O)c1ccc2c(c1)N=C(c1cccc(Cl)c1)c1ccccc1S2)c1ccccc1 (stereo not drawn) [drawing 582] | 50.1 nM | 87% | 
11 | CCCC1=Nc2cc(C(=O)NC3CCC(C)CC3)ccc2Sc2ccccc21 (stereo not drawn) [drawing 975] |  | 114% | IC50 [3]: 20 nM
12 | O=C(NN1CCOCC1)c1ccc2c(c1)N=C(c1ccc(Cl)cc1)c1ccccc1S2 | 251 nM | 75% | 
13 | O=C(NN1CCCCC1)c1ccc2c(c1)N=C(c1ccc(F)cc1)c1ccccc1S2 [drawing 845] |  |  | % Inhibition (Appendix A): 97%
14 | O=C(NN1CCCCC1)c1ccc2c(c1)N=C(c1ccc(Cl)cc1)c1ccccc1S2 [drawing 914] |  |  | % Inhibition (Appendix A): 51%
15 | O=C(NC1CCCCC1)c1ccc2c(c1)N=C(c1ccccc1Cl)c1ccccc1S2 | 251 nM | 67% | 
16 | O=C(NN1CCCCC1)c1ccc2c(c1)N=C(C1CCCCC1)c1ccccc1S2 [drawing 744] |  |  | Emax [4]: 86%
17 | CCCCNC(=O)c1ccc2c(c1)N=C(c1ccc(Cl)cc1)c1ccccc1[S+]2[O-] (stereo not drawn) [drawing 666] | 63.1 nM | 97% | 
18 | CCCC1=Nc2cc(C(=O)NCC3CCCN3CC)ccc2Sc2ccccc21 (stereo not drawn) | 1580 nM | 133% | 
19 | O=C(NC1CCC(F)(F)CC1)c1ccc2c(c1)N=C(c1ccc(F)cc1)c1ccccc1S2 [drawing 821] | 12.6 nM | 91% | 
20 | O=C(NCc1ccco1)c1ccc2c(c1)N=C(c1ccc(Cl)s1)c1ccccc1S2 [drawing 621] | 3.98 nM | 118% | 
21 | CONC(=O)c1ccc2c(c1)N=C(c1ccc(F)cc1)c1ccccc1S2 | 501 nM | 65% | 
22 | CCCCNC(=O)c1ccc2c(c1)N=C(c1ccc(Cl)cc1)c1cc(Cl)ccc1S2 [drawing 556] | 50.1 nM | 112% | 
23 | CC(NC(=O)c1ccc2c(c1)N=C(c1ccc(F)cc1)c1ccccc1S2)c1ccccc1 (stereo not drawn) [drawing 760] | 100 nM | 81% | 
24 | O=C(NCc1cccs1)c1ccc2c(c1)N=C(c1ccc(Cl)s1)c1ccccc1S2 [drawing 553] | 2 nM | 114% | 

Row | SMILES | IC50 [1] | Emax [2] | other results
25 | CC(C)NC(=O)c1ccc2c(c1)N=C(c1ccc(Cl)cc1F)c1ccccc1S2 [drawing 664] | 63.1 nM | 101% | 
26 | Cc1ccc(N2CCN(C(=O)c3ccc4c(c3)N=C(c3ccc(Cl)cc3)c3ccccc3S4)CC2)c(C)c1 [drawing 970] | 316 nM | 94% | 
27 | CC(C)CC1=Nc2cc(C(=O)NN3CCCCC3)ccc2Sc2ccccc21 | 200 nM | 90% | 
28 | CONC(=O)c1ccc2c(c1)N=C(c1sccc1C)c1ccccc1S2 | 501 nM | 45% | 
29 | O=C(NN1CCCCCC1)c1ccc2c(c1)N=C(c1cccc(F)c1)c1ccccc1S2 [drawing 697] |  | 106% | IC50 [3]: 7.94 nM
30 | O=C(NCc1ccc(F)cc1)c1ccc2c(c1)N=C(c1cccc(Cl)c1)c1ccccc1S2 [drawing 715] |  | 97% | IC50 [3]: 7.94 nM
31 | O=C(NCc1ccc(Cl)cc1Cl)c1ccc2c(c1)N=C(c1ccc(F)cc1)c1ccccc1S2 [drawing 1057] | 31.6 nM | 96% | 
32 | O=C(NCc1ccccc1Br)c1ccc2c(c1)N=C(C1CCCCC1)c1ccccc1S2 [drawing 548] | 39.8 nM | 85% | 
33 | O=C(NCc1ccccc1)c1ccc2c(c1)N=C(C1CCCCC1)c1ccccc1S2 [drawing 877] | 15.8 nM | 97% | 
34 | CCCC1=Nc2cc(C(=O)N3CCC(C(=O)OCC)CC3)ccc2Sc2ccccc21 | 200 nM | 108% | 
35 | CCCCNC(=O)c1ccc2c(c1)N=C(c1ccccc1OC)c1ccccc1S2 | 251 nM | 80% | 
36 | CCCNC(=O)c1ccc2c(c1)N=C(c1ccc(F)cc1)c1ccccc1S2 [drawing 841] | 12.6 nM | 95% | 
37 | O=C(NCCc1ccccc1)c1ccc2c(c1)N=C(c1ccccc1)c1ccccc1S2 [drawing 1023] | 25.1 nM | 106% | 
38 | O=C(NCc1ccccc1Br)c1ccc2c(c1)N=C(c1ccccc1F)c1ccccc1S2 [drawing 602] | 50.1 nM | 65% | 
39 | O=C(NN1CCCCC1)c1ccc2c(c1)N=C(C1CCCCC1)c1ccccc1S2 [drawing 987] |  |  | % Inhibition (Appendix A): 101%
40 | O=C(NC1CCCC1)c1ccc2c(c1)N=C(c1ccc(F)cc1)c1ccccc1S2 [drawing 720] |  | 117% | IC50 [3]: 79.4 nM
41 | O=C(NN1CCOCC1)c1ccc2c(c1)N=C(c1cccc(F)c1)c1ccccc1S2 | 200 nM | 63% | 
42 | C[C@@H]1CCC[C@H](C)N1NC(=O)c1ccc2c(c1)N=C(c1cccc(F)c1)c1ccccc1S2 [drawing 727] | 7.94 nM | 120% | 
43 | CCOCCNC(=O)c1ccc2c(c1)N=C(c1ccc(F)cc1)c1ccccc1S2 [drawing 596] | 50.1 nM | 94% | 
44 | CCN(CCNC(=O)c1ccc2c(c1)N=C(N1CCCCC1)c1ccccc1S2)c1ccccc1 [drawing 913] | 15.8 nM | 105% | 
45 | C[C@@H]1CCC[C@H](C)N1NC(=O)c1ccc2c(c1)N=C(c1cccc(Cl)c1)c1ccccc1S2 [drawing 847] |  | 100% | IC50 [3]: 12.6 nM
46 | CCCCNC(=O)c1ccc2c(c1)N=C(CCC)c1ccccc1S2 | 25.1 nM | 111% | 
47 | O=C(NN1CCCC1)c1ccc2c(c1)N=C(c1ccc(Cl)cc1)c1ccccc1S2 [drawing 698] | 79.4 nM | 100% | 
48 | O=C(NCc1cccs1)c1ccc2c(c1)N=C(c1cccc(F)c1)c1ccccc1S2 [drawing 593] |  |  | pIC50 (Appendix A, receptor form (mutant or wild-type) not stated): 8.5; % Inhibition (Appendix A): 93%

Row | SMILES | IC50 [1] | Emax [2] | other results
49 | O=C(NC1CCCCC1)c1ccc2c(c1)N=C(c1ccc(Cl)cc1)c1ccccc1S2 [drawing 738] | 79.4 nM | 96% | 
50 | CCONC(=O)c1ccc2c(c1)N=C(c1ccc(Cl)s1)c1ccccc1S2 | 50.1 nM | 97% | 
51 | O=C(NCCc1cccnc1)c1ccc2c(c1)N=C(c1cccc(F)c1)c1ccccc1S2 [drawing 981] |  | 94% | IC50 [3]: 20 nM
52 | Cc1cccnc1C1=Nc2cc(C(=O)NCc3cccnc3)ccc2Sc2ccccc21 | > 126 nM | 39% | 
53 | CCCC1=Nc2cc(C(=O)NC(C)CCc3ccccc3)ccc2Sc2ccccc21 (stereo not drawn) | 39.8 nM | 95% | 
54 | Clc1ccc(C2=Nc3cc(-c4ncc[nH]4)ccc3Sc3ccccc32)cc1 [drawing 846] | 158 nM | 109% | 
55 | CCOC(=O)c1ccc(C2=Nc3cc(C(=O)NCc4cccnc4)ccc3Sc3ccccc32)cc1 [drawing 850] | 158 nM | 73% | 
56 | O=C(NNC(O)c1ccc2c(c1)N=C(c1cccc(Br)c1)c1ccccc1S2)c1ccccc1 (stereo not drawn) | 100 nM | 76% | 
57 | Cc1ccsc1C1=Nc2cc(C(=O)NN3[C@H](C)CCC[C@@H]3C)ccc2Sc2ccccc21 [drawing 772] |  | 89% | IC50 [3]: 100 nM
58 | O=C(NCc1cccc(Cl)c1)c1ccc2c(c1)N=C(c1ccccc1)c1ccccc1S2 [drawing 899] | 15.8 nM | 107% | 
59 | O=C(NC1CCCCNC1=O)c1ccc2c(c1)N=C(c1ccc(F)cc1)c1ccccc1S2 (stereo not drawn) | 251 nM | 83% | 
60 | CCCC1=Nc2cc(C(=O)NC)ccc2Sc2ccccc21 | 501 nM | 119% | 
61 | CONC(=O)c1ccc2c(c1)N=C(c1ccc(Cl)cc1F)c1ccccc1S2 | 200 nM | 69% | 
62 | O=C(NCc1cccnc1)c1ccc2c(c1)N=C(c1ccc(Cl)cc1)c1ccccc1S2 [drawing 1093] | 31.6 nM | 88% | 
63 | CCCCNC(=O)c1ccc2c(c1)N=C(c1ccc(Cl)s1)c1cc(F)ccc1S2 [drawing 873] | 15.8 nM | 99% | 
64 | O=C(Cc1ccccc1)NNC(=O)c1ccc2c(c1)N=C(N1CCCCC1)c1ccccc1S2 | 200 nM | 69% | 
65 | O=C(NNCC(F)(F)F)c1ccc2c(c1)N=C(c1ccc(Cl)cc1)c1ccccc1S2 [drawing 816] |  | 81% | 
66 | O=C(NCCc1cccnc1)c1ccc2c(c1)N=C(c1ccc(Cl)s1)c1ccccc1S2 [drawing 1029] | 25.1 nM | 110% | 
67 | O=C(NC1CCCC1)c1ccc2c(c1)N=C(c1ccc(Cl)c(Cl)c1)c1ccccc1S2 [drawing 672] | 63.1 nM | 95% | 
68 | O=C(NCCc1ccncc1)c1ccc2c(c1)N=C(c1ccccc1Cl)c1ccccc1S2 | 316 nM | 82% | 
69 | O=C(NCc1cccc(Cl)c1)c1ccc2c(c1)N=C(N1CCCCC1)c1ccccc1[S+]2[O-] (stereo not drawn) [drawing 758] | 100 nM | 71% | 
70 | CC(NC(=O)c1ccc2c(c1)N=C(C1CCCCC1)c1ccccc1S2)c1ccccc1 (stereo not drawn) [drawing 634] | 63.1 nM |  | % Inhibition (Appendix A): 87%
71 | O=C(NCc1ccncc1)c1ccc2c(c1)N=C(c1ccccc1F)c1ccccc1S2 |  | 94% | 
